The record followed here is patent US8673320B2, “Metal-citrate transporter antigen from Streptomyces coelicolor and uses thereof” (Syracuse University, priority 2008, dated 2014).

Where a name gives a salt, the structure may show the parent alone.

Assay [1] relates to Streptomyces coelicolor A3(2). The assay is described as follows: 1,5-[^14C]-citrate transport assay in whole cells, Streptomyces coelicolor A3(2). Type of assay: cell-based. The settings on record: for uptake of citrate or metal-citrate species above background: S. coelicolor grown with glucose (SMMG), for Fe^3+ SMMG supplemented with 36 μM FeCl3.6H2O; for uptake of citrate in the presence of metal ion: S. coelicolor grown in broth with citrate as sole carbon source (SMMC), PIPES pH 6.5, 4.4 μM citrate. The method, then: S. coelicolor A3(2) cells were grown from stocks for 48-72 hours at 28° C. and 300 rpm. Cells were collected via centrifugation and washed twice with 50 mM chelexed piperazine-N,N′-bis(2-ethanesulfonic acid) (PIPES) buffer, pH 6.5. Cells were resuspended to an OD of 0.2 after the second wash. 100 μl of cells were added to 2.2 ml microcentrifuge tubes. 5 μl of metal as the chloride salt was then added from the following stock solution concentrations (220 mM CaCl2 or BaCl2, 22 mM MgCl2, NiCl2, 22 mM CoCl2, PbCl2, MnCl2 and 1.65 mM FeCl3). Different molar amounts of metals were used to maximize metal-citrate complex formation as per MINTEQ calculations (A12) and successfully used in a previous literature report (A19). Cells were then incubated at 30° C. for 8 minutes with shaking. At 8 minutes, 5 μl of 96.8 μM 1,5-[^14C]-citrate was added to each sample to provide a final concentration of 4.4 μM. Uptake was stopped by addition of 2 mL of 0.1 M LiCl. This was followed by immediate filtration through cellulose nitrate filters ([…], 2.1 cm diameter). The filters were washed with 2×2 mL of 0.1 M LiCl solution and radioactivity was recorded using a liquid scintillation counter. In every experimental run, background radioactivity was gauged by adding 2 mls of LiCl prior to addition of the radiolabelled citrate. As before, cells were then immediately filtered, washed with 2×2 mL of 0.1 M LiCl and radioactivity monitored. This served as the background and was subtracted from final data. Experiments were performed using at least three independent cultures and each time point was collected in triplicate per run. 4×100 μl of cells from each run were filtered directly through pre-weighed cellulose nitrate filter paper and dried to determine average cell sample weight. Transport assays were also ‘stopped’ using 10 mM HEPES-glucose buffer instead of 0.1 M LiCl to check for the occurrence of ‘leaking’, which has been postulated to occur with the use of LiCl (A22). No noticeable difference was observed across multiple cultures tested in either S. coelicolor (or E. coli as described below).
It is important to note that pre-incubating the ‘free’ metal prior to addition of ^14[C]-citrate or synthesizing the complex and then adding it to the cells made no difference to experimental results consistent with the work reported by Lolkema et al. (A19), except in the case of Fe^3+. Transport assays with Fe^3+ were performed at 25.0° C. with the metal precomplexed to [^14C]-citrate to prevent Fe^3+ precipitation in the aqueous buffer. The temperature and pH change were accounted for in MINTEQ calculations. All experiments using precomplexed mixtures were filtered using a 0.45 μm syringe filter (Fisher Scientific) prior to addition to cells.

For assay [2], the system named is S. coelicolor. Kind of assay: Growth of S. coelicolor in CHELEX-washed, metal-free SMMC broth. It is filed as cell-based, Streptomyces coelicolor. How it is done: Streptomyces coelicolor A3(2) was obtained from a third party supplier and the American Type culture collection (BAA-471). S. coelicolor A3(2) stocks were grown in Yeast-Extract Malt Extract broth (YEME) at 28° C. in 125 mL baffled flasks to an Optical Density at 600 nm (OD600) of ˜2.0. 20% glycerol was added to the cells in a 1:1 volume ratio and the cells were chilled on ice for 1 hour and placed at −80° C. still in the ice container. After 24 hours the cells were taken out of the ice container and at −80° C. Streptomyces coelicolor was grown in Streptomyces Minimal Medium (SMM) broth for functional characterization studies. SMM was prepared as previously reported (A17) with the following modifications; L-asparagine was replaced with ammonium sulfate (1 g L^−1), agar was eliminated and either [56 mM] sodium citrate (SMMC) or [56 mM] glucose (SMMG) was added as the sole carbon source. 50 ml of SMMC or SMMG broths were inoculated with 1 ml of S. coelicolor A3(2) stock solutions and grown for 48-72 hrs at 28° C. and 300 rpm shaking in 125 mL baffled flasks.
In addition, growth of S. coelicolor was arrested in CHELEX-washed, metal-free SMMC broth. This arrest could be prevented by addition of Fe^3+ (or Ca^2+) but not Mg^2+ or Ni^2+ to SMMC.

Assay [3] has as its system Sccit. The assay is described as follows: 1,5-[^14C]-citrate transport assay in E. coli expressing Sccit. It is filed as cell-based, Streptomyces coelicolor. The settings on record: E. coli AA93 Δfec or JW4251-2 ΔfecA, induced with 0.5 mM IPTG for 1 hour. How it is done: E. coli AA93 and JW4251-2 cultures were grown in LB as described above. Protein expression for transport assays was induced at 30.0° C. with 0.5 mM Isopropyl β-D-thiogalacto-pyranoside (IPTG) at an OD600 of 1.0 for 1 hour. Subsequent flux assays followed the protocol described above for S. coelicolor and previous literature protocol (A19) with the following adaptations: cells were resuspended with 10 mL of PIPES buffer at 6.5 for all metals, and the transport assay was conducted at 37.0° C. except for iron (25° C.). Non-induced controls were included in all runs. Concentration of metal ion and citrate were chosen to maximize the formation of the desired metal-citrate complex (see Table 2). Experiments were performed using at least three independent cultures and each time point was collected in triplicate per run. Incubation of the metal ion (except for Fe^3+ as described above) and pre-complexation of the metal with [^14C]-citrate prior to cell addition yielded similar results. Experiments were also conducted, specifically for Fe^3+-citrate uptake, involving reducing the IPTG induction temperature in E. coli down to 4° C. (see FIG. 5). This was to observe actual uptake of the iron complex.

Turning to `[Ba+2]` [Ba^2+], the “uptake of citrate or metal-citrate species above background” value in assay [1] is listed as “No uptake”.

With `[Mg+2]` [Mg^2+], in assay [2], the “prevention of growth arrest by addition of metal ion” value (“prevention of growth arrest” for short) is recorded as “not”. In addition, in assay [1], the “uptake of citrate in the presence of metal ion” value (“uptake of citrate … of metal ion” below) is on record as “no greater than the rate of uptake without metal ions” and the “uptake of citrate or metal-citrate species above background” value is reported as “No uptake”. Besides, the “uptake of 1,5-[^14C]-citrate with metal ion cofactor” value (from here on “uptake of 1,5-[^14C]-citrate”) in assay [3] is recorded as “did not result in citrate uptake”.

Take `[Co+2]` [Co^2+]: in assay [1], the “uptake of citrate … of metal ion” value was “no greater than the rate of uptake without metal ions” and the “uptake of citrate or metal-citrate species above background” value was “No uptake”. The “uptake of 1,5-[^14C]-citrate” value in assay [3] is recorded as “did not result in citrate uptake”.

Take `O=C([O-])CC(O)(CC(=O)[O-])C(=O)[O-].[Fe+3]` [Fe^3+-citrate]: the “Fe^3+-citrate uptake, iron absent from growth broth” value in assay [1] (S. coelicolor grown in SMM containing glucose, no iron in broth) is “greatly reduced”.

On to `[Fe+3]` [Fe^3+], for which, in assay [2], the “prevention of growth arrest” value is given as “prevented”. In addition, in assay [1], the “uptake of citrate … of metal ion” value is “uptake was dependent on the presence” and the “uptake of citrate or metal-citrate species above background” value is reported as “significant uptake”. In assay [3], the “uptake of 1,5-[^14C]-citrate” value was “uptake of 1,5-[^14C]-citrate observed”.

`[Ni+2]` [Ni^2+]: in assay [2], the “prevention of growth arrest” value was “not”. Moreover, in assay [1], the “uptake of citrate … of metal ion” value is “no greater than the rate of uptake without metal ions” and the “uptake of citrate or metal-citrate species above background” value was “No uptake”. Moreover, the “uptake of 1,5-[^14C]-citrate” value in assay [3] is listed as “did not result in citrate uptake”.

Regarding `O=C(O)CN(CCOCCOCCN(CC(=O)O)CC(=O)O)CC(=O)O` [EGTA, ethylene glycol tetraacetic acid, reference compound], the “EGTA concentration at which citrate uptake decreased to zero” value in assay [1] (in the presence of 10 mM Ca^2+) was “over 1 mM”.

As for `[Ca+2]` [Ca^2+], the “prevention of growth arrest” value in assay [2] was “prevented”. Further, the “uptake of citrate or metal-citrate species above background” value in assay [1] is “No uptake”. Moreover, in assay [3], the “uptake of 1,5-[^14C]-citrate” value is “uptake of 1,5-[^14C]-citrate observed”.

For the molecule `[Pb+2]` [Pb^2+], in assay [1], the “uptake of citrate or metal-citrate species above background” value is reported as “No uptake”. Also, the “uptake of 1,5-[^14C]-citrate” value in assay [3] was “uptake of 1,5-[^14C]-citrate observed”.

`O=C(O)CC(O)(CC(=O)O)C(=O)O` [free citrate]: in assay [1], the “uptake of citrate … of metal ion” value is given as “no uptake” and the “uptake of citrate or metal-citrate species above background” value is recorded as “No uptake”. Also, the “uptake of 1,5-[^14C]-citrate” value in assay [3] is recorded as “not transported”.
